According to patent publication US5879657A, “Radiolabeled platelet GPIIb/IIIa receptor antagonists as imaging agents for the diagnosis of thromboembolic disorders” (The Dupont Merck Pharmaceutical Company, priority 1994, dated 1999):

Assays:
thrombus = experiment: Arteriovenous Shunt Model; type: in vivo, dogs; conditions: mean ± SEM; for Arterial Conditions T/B ratio / Venous Conditions T/B ratio: T/B = thrombus/background; for Arterial Conditions Uptake (% id/g) / Venous Conditions Uptake (% id/g): extracorporeal A-V shunt, 1 hr shunt period
Procedure: Arteriovenous Shunt Model: Adult mongrel dogs of either sex (9-13 kg) were anesthetized with pentobarbital sodium (35 mg/kg, i.v.) and ventilated with room air via an endotracheal tube (12 strokes/min,25 ml/kg). For arterial pressure determination, the left carotid artery was cannulated with a saline-filled polyethylene catheter (PE-240) and connected to a Statham pressure transducer (P23ID; Oxnard, Calif.). Mean arterial blood pressure was determined via damping the pulsatile pressure signal. Heart rate was monitored using a cardiotachometer (Biotach, Grass Quincy, Ma.) triggered from a lead II electrocardiogram generated by limb leads. A jugular vein was cannulated (PE-240) for drug administration. The both femoral arteries and femoral veins were cannulated with silicon treated (Sigmacote, Sigma Chemical Co. St Louis, Mo.), saline filled polyethylene tubing (PE-200) and connected with a 5 cm section of silicon treated tubing (PE-240) to form an extracorporeal arterio-venous shunts (A-V). Shunt patency was monitored using a doppler flow system (model VF-1, Crystal Biotech Inc, Hopkinton, Ma.) and flow probe (2-2.3 mm, Titronics Med. Inst., Iowa City, Iowa) placed proximal to the locus of the shunt. All parameters were monitored continuously on a polygraph recorder (model 7D Grass) at a paper speed of […] or 25 mm/sec.
On completion of a 15 min post surgical stabilization period, an occlusive thrombus was formed by the introduction of a thrombogenic surface (4-0 braided silk thread, 5 cm in length, Ethicon Inc., Somerville, N.J.) into the shunt one shunt with the other serving as a control. Two consecutive 1 hr shunt periods were employed with the test agent administered as an infusion over 5 min beginning 5 min before insertion of the thrombogenic surface. At the end of each 1 hr shunt period the silk was carefully removed and weighed and the % incorporation determined via well counting. Thrombus weight was calculated by subtracting the weight of the silk prior to placement from the total weight of the silk on removal from the shunt. Arterial blood was withdrawn prior to the first shunt and every 30 min thereafter for determination of blood clearance, whole blood collagen-induced platelet aggregation, thrombin-induced platelet degranulation (platelet ATP release), prothrombin time and platelet count. Template bleeding time was also performed at 30 min intervals.

venous thrombus = experiment: Canine Deep Vein Thrombosis Model; type: in vivo, dogs; conditions: 1 mCi/Kg, i.v., given at reflow; jugular vein thrombi; 15, 60 and 120 min post-administration
Procedure: Canine Deep Vein Thrombosis Model: This model incorporates the triad of events (hypercoagulatible state, period of stasis, low shear environment) essential for the formation of a venous fibrin-rich actively growing thrombus. The procedure was as follows: Adult mongrel dogs of either sex (9-13 kg) were anesthetized with pentobarbital sodium (35 mg/kg,i.v.) and ventilated with room air via an endotracheal tube (12 strokes/min, 25 ml/kg). For arterial pressure determination, the right femoral artery was cannulated with a saline-filled polyethylene catheter (PE-240) and connected to a Statham pressure transducer (P23ID; Oxnard, Calif.). Mean arterial blood pressure was determined via damping the pulsatile pressure signal. Heart rate was monitored using a cardiotachometer (Biotach, Grass Quincy, Ma.) triggered from a lead II electrocardiogram generated by limb leads. The right femoral vein was cannulated (PE-240) for drug administration. A 5 cm segment of both jugular veins was isolated, freed from fascia and circumscribed with silk suture. A microthermister probe was placed on the vessel which serves as an indirect measure of venous flow. […] The agent was infused during the first 5 min of reflow and the rate of incorporation monitored using gamma scintigraphy.

| Substance | Arterial Conditions T/B ratio (thrombus) | Arterial Conditions Uptake (% id/g) (thrombus) | Venous Conditions T/B ratio (thrombus) | Venous Conditions Uptake (% id/g) (thrombus) | uptake in venous thrombus (typical images, gamma scintigraphy) (venous thrombus) |
| --- | --- | --- | --- | --- | --- |
| Cyclo-([^111 In-DTPA-D-Lys]-NMeArg-Gly-Asp-Mamb) [Example 16] | 128 ± 24 | 0.95 ± 0.29 % id/g | 14 | 0.08 % id/g | – |
| Cyclo-([[^99m TcO(mapt)]^- -D-Lys]-NMeArg-Gly-Asp-Mamb) [Example 18] | 147 ± 44 | 0.47 ± 0.12 % id/g | 13 ± 3 | 0.04 ± .01 % id/g | – |
| ^99m Tc((EDDA)-Cyclo(D-Val-NMeArg-Gly-Asp-Mamb(hydrazino-nicotinyl-5-Aca)) [Example 13] | 163 ± 14 | 8.50 ± 0.20 % id/g | 33 ± 27 | 1.64 ± 1.32 % id/g | – |
| [(^125 I)N-3-(4-hydroxyphenyl)propionyl]-Cyclo-(D-Lys-NMeArg-Gly-Asp-Mamb) [Example 9] | 44 ± 4 | 2.60 ± .005 % id/g | 8 ± 3 | 0.45 ± 0.11 % id/g | – |
| Cyclo-(D-Val-NMeArg-Gly-Asp-Mamb([^99m TcO(MeMAG2 gaba)]^- -5-Aca)) [Example 23] | 195 ± 39 | 5.41 ± 0.70 % id/g | 7 ± 0.4 | 0.21 ± 0.05 % id/g | – |
| ^99m TcO(MAMA)-Cyclo-(D-Val-NMeArg-Gly-Asp-Mamb(5-Aca)) [Example 10] | 221 ± 16 | 5.00 ± 0.51 % id/g | 7 ± 0.6 | 0.16 ± 0.02 % id/g | – |
| Cyclo-((^125 I)D-Tyr-NMeArg-Gly-Asp-Mamb) [Example 8] | 173 ± 22 | 1.81 ± 0.18 % id/g | 19 ± 9 | 0.25 ± 0.15 % id/g | – |
| ^99m Tc(tricine)2 -Cyclo(D-Val-NMeArg-Gly-Asp-Mamb(hydrazino-nicotinyl-5-Aca)) [Example 12] | 111 ± 6 | 6.15 ± 0.66 % id/g | 7.0 ± 2 | 0.46 ± 0.19 % id/g | uptake in a rapidly growing venous thrombus |
| Cyclo-([[^99m TcO(MeMAG2 gaba)]^- -D-Lys]-NMeArg-Gly-Asp-Mamb) [Example 22] | 158 ± 5 | 1.28 ± 0.44 % id/g | 7 ± 4 | 0.045 ± 0.02 % id/g | – |
| Cyclo-(D-Val-NMeArg-Gly-Asp-Mamb([^99m TcO(MA-MAMA)]-5-Aca)) [Example 32] | 102 | 7.4 % id/g | 0 | 0 % id/g | – |
| Cyclo-(D-Val-NMeArg-Gly-Asp-Mamb([^99m TcO(mapt)]^- -5-Aca)) [Example 19] | 142 ± 24 | 5.75 ± 1.28 % id/g | 13 ± 4 | 0.58 ± 0.22 % id/g | uptake in a rapidly growing venous thrombus |
| Cyclo-([([^99m TcO(mapt)]^- -5-Aca)D-Lysσ-NMeArg-Gly-Asp-Mamb) [Example 21] | 113 ± 1 | 1.6 ± 0.12 % id/g | 4.0 ± 2 | 0.06 ± 0.03 % id/g | – |
